The results in this text go back to US20220380319A1 (Bial - R&D Investments, S.A., priority 2019, published 2022).

Converted amounts (≈) assume the structure as drawn.

One data set deals with T1, acid ceramidase (Homo sapiens, UniProt Q13510).
T1 construct: Cell lysates overexpressing acid ceramidase were used as the enzyme source; expressed in transfected cells
T1 sequence (Q13510 22-395): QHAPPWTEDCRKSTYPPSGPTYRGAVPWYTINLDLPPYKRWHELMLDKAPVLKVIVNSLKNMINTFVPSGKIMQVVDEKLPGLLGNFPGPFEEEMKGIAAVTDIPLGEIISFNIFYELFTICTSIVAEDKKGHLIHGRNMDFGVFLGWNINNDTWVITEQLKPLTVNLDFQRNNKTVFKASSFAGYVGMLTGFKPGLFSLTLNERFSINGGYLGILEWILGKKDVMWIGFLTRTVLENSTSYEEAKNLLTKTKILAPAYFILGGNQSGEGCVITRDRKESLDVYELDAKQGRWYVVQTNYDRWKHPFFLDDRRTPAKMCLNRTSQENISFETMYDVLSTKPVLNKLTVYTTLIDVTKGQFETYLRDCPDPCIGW
The experiment in a line: Acid ceramidase inhibition, biochemical fluorescent assay with cell lysates overexpressing acid ceramidase, substrate Rbm14-12. The following applies: substrate Rbm14-12 6.3 μM. In outline: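 IC50 derived by four-parameter fitting of fluorescence (ex360 nm, em446 nm) produced after 1 hr in methanol/NaIO4/glycine stop buffer, pH 10.6. Reaction: 6.3 μM Rbm14-12, 1 hr RT, following 1 hr RT compound preincubation with 10 μg overexpressing-cell lysate protein in pH 4.5 NaAC/NaCl buffer.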

The nature of data set [1]: Compound solubility in water.
Setting [2] is: pH 4.5, 1 hr preincubation at RT.

In the case of `O=C(NCCc1ccccc1)n1c(OCCN2CCOCC2)nc2ccccc21` [Example 357, 2-(2-Morpholinoethoxy)-N-phenethyl-1H-benzo[d]imidazole-1-carboxamide], the IC50 at acid ceramidase (setting [2]) lay in the range of 200 to 1000 nM. The compound further had a solubility in data set [1] of 6 µg/mL (≈ 15.2 µM).
`CC(=O)N1CCN(c2cccc3c2ncn3C(=O)NCCCC(F)(F)F)CC1` [Example 225, 4-(4-Acetylpiperazin-1-yl)-N-(4,4,4-trifluorobutyl)-1H-benzo[d]imidazole-1-carboxamide]: the IC50 on acid ceramidase (pH 4.5) is under 200 nM. In addition, the solubility in data set [1] amounted to 8 µg/mL (≈ 20.1 µM).
On the same counts, the results for `COc1nc2c(N3CCOCC3)cc(F)cc2n1C(=O)NCCC(C)C` [Example 212, 6-Fluoro-N-iso-pentyl-2-methoxy-4-morpholino-1H-benzo[d]imidazole-1-carboxamide] are 200 to 1000 nM and 8 µg/mL (≈ 22 µM).
On the same counts, the results for `C[C@@H]1CN(c2cccc3c2ncn3C(=O)NCCCC(F)(F)F)C[C@H](C)O1` [Example 226, 4-((2R,6S)-2,6-dimethylmorpholino)-N-(4,4,4-trifluorobutyl)-1H-benzo[d]imidazole-1-carboxamide] are 200 to 1000 nM and 5 µg/mL (≈ 13 µM).
On acid ceramidase (setting [2]), `O=C(NCCc1ccccc1)n1cnc2ccc(N3CCCCC3)cc21` [Example 13b, N-Phenethyl-6-(piperidin-1-yl)-1H-benzo[d]imidazole-1-carboxamide] returned an IC50 of under 200 nM. In data set [1], this compound had a solubility of 9.1 µg/mL (≈ 26.1 µM).
On acid ceramidase (setting [2]), `CN(C)C1CN(c2cccc3c2ncn3C(=O)NCCOc2ccccc2)C1` [Example 353, 4-(3-(Dimethylamino)azetidin-1-yl)-N-(2-phenoxyethyl)-1H-benzo[d]imidazole-1-carboxamide] gave an IC50 of under 200 nM. The compound further gave a solubility in data set [1] of 16 µg/mL (≈ 42.2 µM).
The compound `O=C(NCCc1ccccc1)n1cnc2cc(Cl)c(-c3ccccn3)cc21` [Example 7b, 5-chloro-N-phenethyl-6-(pyridin-2-yl)-1H-benzo[d]imidazole-1-carboxamide] registered an IC50 against acid ceramidase (setting [2]) of under 200 nM. In addition, in data set [1], the solubility was 0.1 µg/mL (≈ 0.265 µM).
As to `COc1nc2cc(N3CCOCC3)ccc2n1C(=O)NCCCc1ccccc1` [Example 134b, 2-methoxy-5-morpholino-N-(3-phenylpropyl)-1H-benzo[d]imidazole-1-carboxamide], the IC50 at acid ceramidase (setting [2]) is under 200 nM. The compound further had a solubility in data set [1] of 16 µg/mL (≈ 40.6 µM).
On acid ceramidase (pH 4.5), `COc1nc2cc(N3CCC4(CC3)COC4)ccc2n1C(=O)NCCCc1ccccc1` [Example 238b, 2-methoxy-N-(3-phenylpropyl)-5-(2-oxa-7-azaspiro[3.5]nonan-7-yl)-1H-benzo[d]-imidazole-1-carboxamide] registered an IC50 of 200 to 1000 nM. Also, in data set [1], the concentration in solution (solubility) came to 12 µg/mL (≈ 27.6 µM).
With `COc1nc2ccc(-c3cncnc3)cc2n1C(=O)NCCc1ccccc1` [Example 31a, 2-Methoxy-N-phenethyl-6-(pyrimidin-5-yl)-1H-benzo[d]imidazole-1-carboxamide], the IC50 against acid ceramidase (setting [2]) is under 200 nM. The compound also registered a solubility in data set [1] of 7.1 µg/mL (≈ 19 µM).
On the same counts, the results for `COc1cccc2c1ncn2C(=O)NCCC(C)C` [Example 98, N-iso-Pentyl-4-methoxy-1H-benzo[d]imidazole-1-carboxamide] are under 200 nM and 16 µg/mL (≈ 61.2 µM).
The matching figures for `CN1CCN(CCOc2nc3ccccc3n2C(=O)NCCC#Cc2ccccc2)CC1` [Example 363, 2-(2-(4-Methylpiperazin-1-yl)ethoxy)-N-(4-phenylbut-3-yn-1-yl)-1H-benzo[d]imidazole-1-carboxamide]: under 200 nM and 28 µg/mL (≈ 64.9 µM).
The matching figures for `COc1cccc2c1ncn2C(=O)NCCc1ccccc1` [Example 27, 4-Methoxy-N-phenethyl-1H-benzo[d]imidazole-1-carboxamide]: under 200 nM and 7.8 µg/mL (≈ 26.4 µM).
Take `COc1ccc2ncn(C(=O)NCCc3ccccc3)c2c1` [Example 25b, 6-methoxy-N-phenethyl-1H-benzo[d]imidazole-1-carboxamide]: the IC50 on acid ceramidase (setting [2]) was under 200 nM. In data set [1], the concentration in solution (solubility) was 15 µg/mL (≈ 50.8 µM).
On to `CN1CCN(c2cccc3c2ncn3C(=O)NCc2ccc3c(c2)OCCO3)CC1` [Example 365, N-((2,3-Dihydrobenzo[b][1,4]dioxin-6-yl)methyl)-4-(4-methylpiperazin-1-yl)-1H-benzo[d]imidazole-1-carboxamide], for which the half-maximal inhibitory concentration (IC50) at acid ceramidase (setting [2]) was under 200 nM. In data set [1], the concentration in solution (solubility) was 11 µg/mL (≈ 27 µM).
`CN1CC2CC1CN2C1CN(c2cccc3c2ncn3C(=O)NCCOc2ccccc2)C1` (stereo not drawn) [Example 356, 4-(3-(5-Methyl-2,5-diazabicyclo[2.2.1]heptan-2-yl)azetidin-1-yl)-N-(2-phenoxyethyl)-1H-benzo[d]imidazole-1-carboxamide] came in with an IC50 against acid ceramidase (setting [2]) of under 200 nM. In data set [1], this compound came in with a solubility of 46 µg/mL (≈ 103 µM).
In turn, `COc1nc2ccc(N3CCOCC3)cc2n1C(=O)NCCCc1ccc(F)cc1` [Example 221a] gave an IC50 at acid ceramidase (pH 4.5) of under 200 nM. The compound further came in with a solubility in data set [1] of 4 µg/mL (≈ 9.7 µM).
Consider `CC(C)CCNC(=O)n1cnc2c(N3CCC(F)(F)CC3)cccc21` [Example 143, 4-(4,4-Difluoropiperidin-1-yl)-N-isopentyl-1H-benzo[d]imidazole-1-carboxamide], for which the IC50 against acid ceramidase (setting [2]) is 200 to 1000 nM. Moreover, in data set [1], the solubility is 2 µg/mL (≈ 5.71 µM).
Take `CCCCNC(=O)n1cnc2c(F)cccc21` [Example 68, N-Butyl-4-fluoro-1H-benzo[d]imidazole-1-carboxamide]: the IC50 against acid ceramidase (setting [2]) is under 200 nM. The concentration in solution in data set [1] (solubility) was 20.6 µg/mL (≈ 87.6 µM).
At acid ceramidase (pH 4.5), `COc1nc2c(N3CC(N4CCN(C)CC4)C3)cccc2n1C(=O)NCCOc1ccccc1` [Example 329, 2-Methoxy-4-(3-(4-methylpiperazin-1-yl)azetidin-1-yl)-N-(2-phenoxyethyl)-1H-benzo[d]imidazole-1-carboxamide] gave a half-inhibitory concentration (IC50) of over 1000 nM. The same compound gave a solubility in data set [1] of 38 µg/mL (≈ 81.8 µM).
On acid ceramidase (setting [2]), `COc1cc2c(cc1-c1cncnc1)ncn2C(=O)NCC(C)C` [Example 79a, N-iso-Butyl-6-methoxy-5-(pyrimidin-5-yl)-1H-benzo[d]imidazole-1-carboxamide] yielded an IC50 of 200 to 1000 nM. In data set [1], this compound returned a solubility of 22.2 µg/mL (≈ 68.2 µM).
Turning to `O=C(NCCc1ccccc1)n1cnc2cc(F)ccc21` [Example 63, 5-Fluoro-N-phenethyl-1H-benzo[d]imidazole-1-carboxamide], on acid ceramidase (setting [2]), the IC50 is under 200 nM. The concentration in solution in data set [1] (solubility) was 2.6 µg/mL (≈ 9.18 µM).
`O=C(NCCc1ccccc1)n1cnc2ccncc21` [Example 21, N-Phenethyl-3H-imidazo[4,5-c]pyridine-3-carboxamide]: the IC50 against acid ceramidase (setting [2]) is under 200 nM. Moreover, in data set [1], the solubility is 4.3 µg/mL (≈ 16.1 µM).
In the case of `COc1ccccc1C#CCNC(=O)n1cnc2c(N3CCN(C)CC3)cccc21` [Example 341, N-(3-(2-Methoxyphenyl)prop-2-yn-1-yl)-4-(4-methylpiperazin-1-yl)-1H-benzo[d]imidazole-1-carboxamide], the IC50 at acid ceramidase (setting [2]) was under 200 nM. In data set [1], the concentration in solution (solubility) came to 20 µg/mL (≈ 49.6 µM).
For the compound `CCC(C)NC(=O)n1c(OC)nc2cc(-c3cncnc3)ccc21` (stereo not drawn) [Example 109b, N-(sec-butyl)-2-methoxy-5-(pyrimidin-5-yl)-1H-benzo[d]imidazole-1-carboxamide], the IC50 at acid ceramidase (setting [2]) is over 1000 nM. Also, the concentration in solution in data set [1] (solubility) came to 32.4 µg/mL (≈ 99.6 µM).
`O=C(NCCCc1ccccc1)n1cnc2ncccc21` [Example 59, N-(3-Phenylpropyl)-1H-imidazo[4,5-b]pyridine-1-carboxamide] came in with an IC50 against acid ceramidase (setting [2]) of under 200 nM. Further, the concentration in solution in data set [1] (solubility) was 24.6 µg/mL (≈ 87.8 µM).
Regarding `CN1CCN(c2cccc3c2ncn3C(=O)NCC2CCC(F)(F)CC2)CC1` [Example 256, N-((4,4-Difluorocyclohexyl)methyl)-4-(4-methylpiperazin-1-yl)-1H-benzo[d]imidazole-1-carboxamide], the 50% inhibitory concentration (IC50) against acid ceramidase (pH 4.5) fell in the range of 200 to 1000 nM. The amount in solution in data set [1] (solubility) came to 24 µg/mL (≈ 61.3 µM).
With `COc1nc2ccc(N3CCOCC3)cc2n1C(=O)NCCc1ccccc1` [28 & 29a], the IC50 against acid ceramidase (setting [2]) lay in the range of 200 to 1000 nM. The compound also registered a solubility in data set [1] of 18 µg/mL (≈ 47.3 µM).
The matching figures for `O=C(NCCc1ccccc1)n1cnc2cc(N3CCOCC3)ccc21` [Example 14a, 5-Morpholino-N-phenethyl-1H-benzo[d]imidazole-1-carboxamide]: under 200 nM and 16.1 µg/mL (≈ 45.9 µM).
Compound `CN1CCN(c2cccc3c2ncn3C(=O)NCCCC(F)(F)F)CC1` [Example 255, 4-(4-Methylpiperazin-1-yl)-N-(4,4,4-trifluorobutyl)-1H-benzo[d]imidazole-1-carboxamide] gave an IC50 against acid ceramidase (pH 4.5) of 200 to 1000 nM. For the same compound, the concentration in solution in data set [1] (solubility) was 35 µg/mL (≈ 94.8 µM).
The matching figures for `COc1nc2ccc(N3CCOCC3)cc2n1C(=O)NCC1(CC2CC2)CC1` [Example 229a, N-((1-(Cyclopropylmethyl)cyclopropyl)-methyl)-2-methoxy-6-morpholino-1H-benzo[d]imidazole-1-carboxamide]: 200 to 1000 nM and 1 µg/mL (≈ 2.6 µM).
For the compound `CCN1CCN(c2cccc3c2ncn3C(=O)NCCC2CCC(F)(F)C2)CC1` (stereo not drawn) [Example 291, N-(2-(3,3-Difluorocyclopentyl)ethyl)-4-(4-ethylpiperazin-1-yl)-1H-benzo[d]imidazole-1-carboxamide], the IC50 on acid ceramidase (pH 4.5) was 200 to 1000 nM. The same compound gave a solubility in data set [1] of 20 µg/mL (≈ 49.3 µM).
At acid ceramidase (setting [2]), `CC(C)CNC(=O)n1cnc2ccc(-c3cncnc3)cc21` [Example 16b, N-iso-Butyl-6-(pyrimidin-5-yl)-1H-benzo[d]imidazole-1-carboxamide] displayed an IC50 of under 200 nM. This compound also displayed a solubility in data set [1] of 18.3 µg/mL (≈ 62 µM).
